US9205086B2, “Cancer therapy using a combination of a Hsp90 inhibitory compounds and a EGFR inhibitor” (Synta Pharmaceuticals Corp., priority 2010, dated 2015)
“Also recorded” adds a separate entry of the source. Structures can show the parent of a compound that is named as a salt. Blank lines part the entries; values can stand above or below the compound they belong to.

Tests used:
[1] = test system: human NSCLC cell line HCC827; experiment: SCID mouse xenograft, tumor growth (% T/C); format: in vivo; settings: for % T/C value: day 34
Description: FBS was obtained from ATCC and all other reagents were obtained from Invitrogen Corp. (Carlsbad, Calif., USA). Cells that had been cryopreserved in liquid nitrogen were rapidly thawed at 37° C. and transferred to a tissue culture flask containing growth media and then incubated at 37° C. in a 5% CO2 incubator. […] Cultures were passaged by washing with 10 mL of room temperature phosphate buffered saline (PBS) and then disassociating cells by adding 5 mL 1× trypsin-EDTA and incubating at 37° C. until the cells detached from the surface of the flask. To inactivate the trypsin, 5 mL of growth media was added and then the contents of the flask were centrifuged to pellet the cells. The supernatant was aspirated and the cell pellet was resuspended in 10 mL of growth media and the cell number determined using a hemocytometer. Cells were seeded into 175 cm^2 flasks containing 50 mL of growth media and incubated at 37° C. in a 5% CO2 incubator.

[2] = In vivo pharmacokinetic (drug-drug interaction) study in SCID mice, plasma by HPLC; parameters: species or system mouse; settings: for AUCINF / T½ / Cmax: plasma; for Cmax: female, CB17/Icr-Prkdc^scid/Crl (SCID), mouse
Description: Six to eight week old, female CB17/Icr-Prkdc^scid/Crl (SCID) mice were obtained from Charles River Laboratories (Wilmington, Mass., USA). Animals were housed 4-5/cage in micro-isolators, with a 12 hr/12 hr light/dark cycle, acclimated for at least 1 week prior to use and fed normal laboratory chow ad libitum.

[3] = test system: RERF-LC-AI^IVP human lung tumor cells; experiment: Nude mouse xenograft, tumor growth; format: in vivo; settings: 5 times per week, 15 doses
Description: The human squamous non-small cell lung cancer cell line, RERF-LC-AI (RCB0444; S. Kyoizumi, et al., Cancer. Res. 45:3274-3281, 1985), was obtained from the Riken Cell Bank (Tsukuba, Ibaraki, Japan). The cell line was cultured in growth media prepared from 50% Dulbecco's Modified Eagle Medium (high glucose), 50% RPMI Media 1640, 10% fetal bovine serum (FBS), 1% 100× L-glutamine, 1% 100× penicillin-streptomycin, 1% 100× sodium pyruvate and 1% 100×MEM non-essential amino acids. FBS was obtained from American Type Culture Collection (Manassas, Va., USA) and all other reagents were obtained from Invitrogen Corp. (Carlsbad, Calif., USA). Approximately 4-5×10(6) cells that had been cryopreserved in liquid nitrogen were rapidly thawed at 37° C. and transferred to a 175 cm^2 tissue culture flask containing 50 ml of growth media and then incubated at 37° C. in a 5% CO2 incubator.
The growth media was replaced every 2-3 days until the flask became 90% confluent, typically in 5-7 days. […] The supernatant was aspirated and the cell pellet was resuspended in 10 ml of growth media and the cell number determined using a hemocytometer. […]
Studies were conducted on animals between 8 and 12 weeks of age at implantation. […] Tumor volumes (V) were calculated by caliper measurement of the width (W), length (L) and thickness (T) of tumors using the following formula: V=0.5236×(L×W×T). […]

[4] = Body weight change in nude mouse xenograft study; format: in vivo; settings: 200 mg/kg body weight i.p., 5 times per week, 15 doses, tumor-bearing nude mice
Description: The Hsp90 inhibitor, 17-allylamino-17-demethoxygeldanamycin (17-AAG), was employed as a positive control (Albany Molecular Research, Albany, N.Y., USA). […] Animals were intraperitoneally (i.p.) injected with this solution at 10 ml per kg body weight on a schedule of 5 days per week (Monday, Tuesday, Wednesday, Thursday and Friday, with no dosing on Saturday and Sunday) for a total of 15 doses.

JAK2 mutant JAK2V617F = JAK2 mutant JAK2V617F (Homo sapiens, UniProt O60674, V617F); settings: cited from earlier work
JAK2 mutant JAK2V617F, sequence (O60674 whole entry V617F): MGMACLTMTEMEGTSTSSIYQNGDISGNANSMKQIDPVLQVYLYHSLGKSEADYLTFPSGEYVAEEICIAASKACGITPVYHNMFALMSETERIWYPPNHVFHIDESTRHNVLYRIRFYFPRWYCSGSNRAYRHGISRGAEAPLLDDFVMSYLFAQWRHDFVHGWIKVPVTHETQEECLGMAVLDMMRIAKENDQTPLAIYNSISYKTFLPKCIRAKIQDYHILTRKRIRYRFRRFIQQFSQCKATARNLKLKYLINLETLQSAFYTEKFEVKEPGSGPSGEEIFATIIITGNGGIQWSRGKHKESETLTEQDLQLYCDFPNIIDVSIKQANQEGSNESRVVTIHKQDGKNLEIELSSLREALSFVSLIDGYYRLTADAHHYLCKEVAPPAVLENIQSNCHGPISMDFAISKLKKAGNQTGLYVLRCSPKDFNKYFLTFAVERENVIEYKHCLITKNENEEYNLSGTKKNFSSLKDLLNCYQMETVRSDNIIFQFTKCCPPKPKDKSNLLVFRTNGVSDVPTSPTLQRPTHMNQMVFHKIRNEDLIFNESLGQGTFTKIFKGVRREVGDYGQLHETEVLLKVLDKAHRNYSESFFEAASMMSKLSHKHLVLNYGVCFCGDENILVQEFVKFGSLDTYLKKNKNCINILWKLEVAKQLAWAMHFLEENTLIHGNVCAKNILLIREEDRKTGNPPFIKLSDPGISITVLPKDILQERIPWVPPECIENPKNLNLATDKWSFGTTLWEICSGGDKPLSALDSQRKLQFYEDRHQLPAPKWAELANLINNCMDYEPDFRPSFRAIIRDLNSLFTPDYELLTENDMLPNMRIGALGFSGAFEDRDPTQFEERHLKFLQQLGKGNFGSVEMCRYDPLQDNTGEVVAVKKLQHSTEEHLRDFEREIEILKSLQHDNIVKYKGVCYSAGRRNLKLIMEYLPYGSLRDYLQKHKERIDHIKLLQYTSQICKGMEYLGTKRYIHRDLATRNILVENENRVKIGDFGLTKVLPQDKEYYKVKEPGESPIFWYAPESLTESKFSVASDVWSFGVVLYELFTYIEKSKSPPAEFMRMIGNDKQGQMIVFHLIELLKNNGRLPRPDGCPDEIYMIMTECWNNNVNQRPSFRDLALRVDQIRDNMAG

[5] = 50 mg/kg Compound 1 plus 25 mg/kg erlotinib HCl, SCID mice
[6] = analyte Compound 1, Compound 1 50 mg/kg + erlotinib HCl 25 mg/kg, single dose
[7] = analyte Compound 1, Compound 1 50 mg/kg alone, single i.v. dose
[8] = analyte erlotinib HCl, erlotinib HCl 25 mg/kg + Compound 1 50 mg/kg, single dose
[9] = analyte erlotinib HCl, erlotinib HCl 25 mg/kg alone, single dose

AUCINF [2, 6]: 36.0 μMXHR
T½ [2, 6]: 4.5 h
AUCINF [2, 7]: 38.5 μMXHR
T½ [2, 7]: 4.7 h
Cmax ([2]; iv, 50 mg/kg, analyte Compound 1, Compound 1 50 mg/kg + erlotinib HCl 25 mg/kg, single dose): 93.4 µM
Cmax ([2]; iv, 50 mg/kg, analyte Compound 1, Compound 1 50 mg/kg alone, single i.v. dose): 118 µM
Structure (SMILES): CC(C)c1cc(-c2nnc(O)n2-c2ccc3c(ccn3C)c2)c(O)cc1O [Compound 1, 3-(2,4-DIHYDROXY-5- ISOPROPYL-PHENYL)-4-(1- METHYL-INDOL-5-YL)-5- HYDROXY-[1,2,4]TRIAZOLE]
HCC827 tumor growth in SCID mice ([1]; Compound 1 50 mg/kg i.v. once per week, 3 doses, 50 mg/kg): moderately inhibited HCC827 tumor growth
% T/C value ([1]; Compound 1 50 mg/kg i.v. once per week): 15%
effect of erlotinib HCl on plasma half-life, Cmax and total plasma exposure (AUCinf) of Compound 1 [2, 5]: no significant effect; also recorded: did not affect

Structure (SMILES): C=CCNC1=C2C[C@@H](C)C[C@H](OC)[C@H](O)[C@@H](C)/C=C(\C)[C@H](OC(N)=O)[C@@H](OC)/C=C\C=C(/C)C(=O)NC(=CC1=O)C2=O [Compound 17-AAG, 17-allylamino-17-demethoxygeldanamycin, reference compound]
growth rate of RERF-LC-AI^IVP human lung tumor cells in nude mice ([3]; 75 mg/kg body weight i.p.): inhibited tumor growth; also recorded: decreased the growth rate

Structure (SMILES): CCc1cc(-c2nnc(S)n2-c2ccc(OC)c3c2ccn3C(C)C)c(O)cc1O [Compound 26, 3-(2,4-DIHYDROXY-5-ETHYL- PHENYL)-4-(1-ISOPROPYL-7- METHOXY-INDOL-4-YL)-5- MERCAPTO[1,2,4]TRIAZOLE]
overt toxicity (effect on body weights) [4]: not associated with overt toxicity; also recorded: not overtly toxic
growth rate of RERF-LC-AI^IVP human lung tumor cells in nude mice ([3]; 200 mg/kg body weight i.p.): inhibited tumor growth; also recorded: decreased the growth rate

effect of Compound 1 on plasma half-life, Cmax and total plasma exposure (AUCinf) of erlotinib HCl [2, 5]: little or no effect
effect of Compound 1 on plasma half-life, Cmax and total plasma exposure (AUCinf) of erlotinib HCl ([2]; 50 mg/kg Compound 1 plus 25 mg/kg erlotinib HCl, SCID mice, listed as erlotinib): little effect
AUCINF [2, 8]: 39.0 μMXHR
T½ [2, 8]: 2.8 h
AUCINF [2, 9]: 28.1 μMXHR
T½ [2, 9]: 1.7 h
increase in total plasma exposure of erlotinib HCl ([2]; combination with Compound 1 versus erlotinib HCl alone): 39%
Cmax ([2]; intravenous, 25 mg/kg, analyte erlotinib HCl, erlotinib HCl 25 mg/kg + Compound 1 50 mg/kg, single dose): 4.94 µM
Cmax ([2]; intravenous, 25 mg/kg, analyte erlotinib HCl, erlotinib HCl 25 mg/kg alone, single dose): 4.11 µM
Structure (SMILES): C#Cc1cccc(Nc2ncnc3cc(OCCOC)c(OCCOC)cc23)c1 [erlotinib HCl]
inhibition of JAK2V617F (JAK2 mutant JAK2V617F): potently inhibits
% T/C value ([1]; erlotinib HCl 25 mg/kg p.o. once per week): 23%
